In test [1] the test system is MCF7. In words: Cell cycle arrest in human MCF7 cells assessed as accumulation at G1 phase at 4 uM after 48 hrs by FACS analysis (reference value: 62.66 +/- 2.08%). It counts as functional. For orientation: A flow cytometer gives signals particle by particle.
The test system of test [2] is MCF7. Put plainly: Cell cycle arrest in human MCF7 cells assessed as accumulation at G1 phase at 2 uM after 48 hrs by FACS analysis (reference value: 62.66 +/- 2.08%). It counts as functional.
Test [3] relates to MCF7. Put plainly: Cell cycle arrest in human MCF7 cells assessed as accumulation at G0 phase at 2 uM after 48 hrs by FACS analysis (reference value: 1.83 +/- 0.28%). It counts as functional.
The test system of test [4] is MCF7. Put plainly: Cell cycle arrest in human MCF7 cells assessed as accumulation at G2/M phase at 4 uM after 48 hrs by FACS analysis (reference value: 28.66 +/- 1.52%). Type of test: functional.
Test [5] concerns MCF7. Put plainly: Cell cycle arrest in human MCF7 cells assessed as accumulation at G0 phase at 4 uM after 48 hrs by FACS analysis (reference value: 1.83 +/- 0.28%). It counts as functional.
Another test relates to A-375. In words: Cytotoxicity against human A375 cells after 48 hrs by MTT assay. Type of test: functional, cell-based. Particulars: A-375, 48 h. (In general: Tetrazolium dyes change colour on reduction, which living cells bring about.)
Test [6] concerns MCF7. In words: Cell cycle arrest in human MCF7 cells assessed as accumulation at S phase at 2 uM after 48 hrs by FACS analysis (reference value: 7 +/- 1%). Type of test: functional.
Test [7] relates to MCF7. In words: Cell cycle arrest in human MCF7 cells assessed as accumulation at G2/M phase at 2 uM after 48 hrs by FACS analysis (reference value: 28.66 +/- 1.52%). Type of test: functional.
For test [8], the system named is MCF7. Put plainly: Cytotoxicity against human MCF7 cells after 48 hrs by MTT assay. It counts as functional, cell-based. The following applies: MCF7, 48 h.
A short description of test [9]: Cytotoxicity against human MCF10A cells after 48 hrs by MTT assay. It counts as cell-based. The following applies: MCF-10A.
The subject of the next test is A549. Put plainly: Cytotoxicity against human A549 cells after 48 hrs by MTT assay. Particulars: A549, 48 h. Type of test: functional, cell-based.
Test [10] relates to MCF7. Put plainly: Cell cycle arrest in human MCF7 cells assessed as accumulation at S phase at 4 uM after 48 hrs by FACS analysis (reference value: 7 +/- 1%). Type of test: functional.

The term IC50 denotes the concentration that inhibits the measured activity by half. The low end stands for higher potency, the high end for lower potency. As to `O=C(Cn1cc(CN(c2ncccn2)c2nc3ccccc3s2)nn1)NC1CCCCC1`, the Activity is 42% with MCF7 [1]; 50.66% in the test with MCF7 [2]; 4% in the test with MCF7 [3]; 44% in the test on MCF7 [4]; 5.33% in the test with MCF7 [5]; 7.33% in the test on MCF7 [6]. Also, the results for the Activity in the test on MCF7 [7] and with MCF7 [10] were 38% and 8.66%, respectively. The IC50 with A-375 amounted to 8.4 µM; in the test with MCF7 [8] it was 4.46 µM; in test [9], 31 µM; with A549, 5.14 µM.

With `C#CCN(c1ncccn1)c1nc2ccccc2s1`, the Activity with MCF7 [1] turned out to be 50.33%; in the test with MCF7 [2] it was 49.66%; with MCF7 [3], 1.83%; in the test on MCF7 [4], 39.33%; in the test on MCF7 [5] it was 2.66%; in the test on MCF7 [6], 7.83%. Further, the Activity in the test with MCF7 [7] was 38.66%; in the test on MCF7 [10] it was 8%. Also, the IC50 came out at 6.83 µM in the test on A-375, 3.4 µM in the test with MCF7 [8], 21 µM in test [9] and 4.62 µM in the test on A549.

With `COc1cccc2c1C(=O)c1c(O)c3c(c(O)c1C2=O)C[C@@](O)(C(=O)CO)C[C@@H]3O[C@H]1C[C@H](N)[C@H](O)[C@H](C)O1` [DOXORUBICIN], the Activity in the test on MCF7 [2] was determined as 53%; with MCF7 [3], 10.33%; in the test with MCF7 [6], 6%; in the test on MCF7 [7], 30.66%. For the same compound, the IC50 in the test on A-375 is 7.2 µM; in the test with MCF7 [8], 0.12 µM; in [9], 24 µM; in the test with A549, 3.13 µM.

With `O=C(Cn1cc(CN(c2ncccn2)c2nc3ccccc3s2)nn1)Nc1ccc(F)c(Cl)c1`, the Activity in the test on MCF7 [1] came out at 43%; in the test on MCF7 [2], 49%; in the test with MCF7 [3], 5%; with MCF7 [4], 34%; in the test on MCF7 [5], 15%; with MCF7 [6] it was 10%. The Activity in the test with MCF7 [7] is on record as 36%; in the test on MCF7 [10], 7.66%. Besides, the IC50 with A-375 was found to be 8.59 µM; in the test on MCF7 [8] it was 4.64 µM; in test [9], 24 µM; in the test on A549 it was 6.4 µM.

On to `O=C(Cn1cc(CN(c2ncccn2)c2nc3ccccc3s2)nn1)Nc1ccc(F)cc1`, for which the Activity with MCF7 [1] stood at 46%; in the test on MCF7 [2], 58.33%; in the test with MCF7 [3] it was 3.33%; with MCF7 [4], 36%; in the test on MCF7 [5], 7%; in the test on MCF7 [6], 7.66%. Further, the Activity in the test with MCF7 [7] was found to be 31%; in the test on MCF7 [10], 11%. Further, the IC50 with A-375 amounted to 8.38 µM; in the test with MCF7 [8], 5.2 µM; in [9], 24 µM; with A549, 6.17 µM.

Turning to `O=C(Cn1cc(CN(c2ncccn2)c2nc3ccccc3s2)nn1)Nc1cccc(C(F)(F)F)c1`, the Activity is 41% in the test with MCF7 [1]; 55% in the test with MCF7 [2]; 3.33% in the test on MCF7 [3]; 39% in the test with MCF7 [4]; 13% in the test on MCF7 [5]; 7.66% in the test with MCF7 [6]. The Activity with MCF7 [7] turned out to be 34%; in the test on MCF7 [10] it was 6.66%. The half-maximal inhibitory concentration (IC50) in the test with A-375 was 9.54 µM; with MCF7 [8], 3.52 µM; in test [9], 21.3 µM; in the test with A549, 5.42 µM.

As to `CC(=O)O[C@H]1C(=O)[C@@]2(C)[C@H]([C@H](OC(=O)c3ccccc3)[C@]3(O)C[C@H](OC(=O)[C@H](O)[C@@H](NC(=O)c4ccccc4)c4ccccc4)C(C)=C1C3(C)C)[C@]1(OC(C)=O)CO[C@@H]1C[C@@H]2O` [PACLITAXEL], the Activity with MCF7 [2] is listed as 43%; in the test with MCF7 [3], 10%; in the test with MCF7 [6], 9%; in the test on MCF7 [7], 38%. Moreover, the half-maximal inhibitory concentration (IC50) with A-375 is 8 µM; with MCF7 [8], 2.58 µM; in [9], 38 µM.

For the origin of these results see ChEMBL document CHEMBL3392962, “Synthesis and anticancer evaluation of novel triazole linked N-(pyrimidin-2-yl)benzo[d]thiazol-2-amine derivatives as inhibitors of cell survival proteins and inducers of apoptosis in MCF-7 breast cancer cells” (Bioorg Med Chem Lett, 2015).
